Results published in patent US20260041653A1, “AN HDAC INHIBITOR FOR TREATING CANCER WITH A MODIFIED STK11 ACTIVITY OR EXPRESSION” (Tango Therapeutics, Inc., priority 2022, published 2026).

Columns and labels:
HDAC6 = biological target: T1, HDAC6 (Homo sapiens, UniProt Q9UBN7); assay: Cellular NanoBRET assay, HDAC6; type: cell-based
T1 construct: expressed in transfected cells

STK11-null 3LL tumor = assay: Anti-tumor efficacy in PD-1 resistant STK11-null 3LL model; type: in vivo; settings: Compound I 75 mg/kg, Anti-PD1 10 mg/kg
Method: An in vivo anti-tumor efficacy of double combination treatment of Anti-PD1 and Compound I in a PD-1 resistant STK11-null 3LL model was performed. The parental (non STK11KO) 3LL line is relatively resistant to anti-PD1 treatment.
The animals (8/group) were divided into 4 groups: Group I was treated with a control antibody Anti-IgG2, group 2 was treated with anti-PD1 antibody, group 3 was treated with Compound I 75 mg/kg, and group 4 was treated with Compound 1 75 mg/kg and anti-PD1 antibody. Tumor volume and survival was monitored over the course of treatment. The tumor volume and survival was plotted by treatment group (FIG. 17A and FIG. 17B, respectively). The combination treatment with Compound I decreased the PD-1 resistance of this model caused by the SKT11 knockout to the baseline characteristic of the parental line as shown by Group 4's decreased tumor volume and increased survival over time compared to the other groups.

[1] = Tolerated and efficacious dose ranges in vivo
Method: Briefly, a colony forming unit assay was performed in vitro to evaluate the impact of HDAC inhibitors on the viability of erythroid and myeloid cells. Cells were treated with a dose response of each compound for 14 days. Cell colonies were quantified at the end of the experiment and compared to a solvent control. The efficacious dose range of Compound I was also plotted (the range was between 3 mg/kg and 75 mg/kg) (FIG. 12A). The IC50s for each compound were calculated from the erythroid and myeloid colony formation unit assay. These IC50s were normalized to the compound's potency against HDAC1 in the cellular NanoBRET assay to allow for head-to-head compound comparison (Table 4-1).
Compound I concentrations to HDAC1 or HDAC3 inhibition in vivo were plotted in FIG. 12D. Shaded boxes indicate tolerated and efficacious dose ranges of Compound I. Non-tolerated exposures were over 150 mg/kg.

[2] = Pharmacokinetics in cynomolgus monkeys; type: in vivo; settings: cynomolgus monkey, plasma
Method: The PK of Compound I in male cynomolgus monkeys was determined in plasma following single IV bolus and PO administration to non-naïve male cynomolgus s monkeys The vehicle used for IV was 20% wt/vol HPβCD, 1% vol/vol DMSO in saline and for PO was in 0.5% MC (suspension). Plasma samples were collected from 3 animals/group at 0.083, 0.25, 0.5, 1, 3, 6, 9, 12, 24, and 48 hours after dosing.

[3] = Solubility in hERG assay medium; type: physicochemical; settings: aqueous buffer, kinetic from dmso stock, 0.3% DMSO, pH 6.9
Method: The effects of Compound I on a cloned human ether-à-go-go-related gene (hERG) potassium channels stably expressed in human embryonic kidney (HEK) 293 cells were measured using manual patch-clamp technique. Briefly, Compound I was soluble at 100 uM in 0.3% DMSO, pH 6.9. A does range-finding (DRF) assay was performed with Compound I at 3. 30, and 100 uM concentrations.

CYP1A2 = CYP1A2 (Homo sapiens, UniProt P05177); assay: Metabolism by recombinant human CYP1A2; type: in vitro ADME; settings: read-out: terminal half life (T1/2), rh CYP1A2
Method: (§1) Drug metabolizing enzymes involved in the biotransformation of Compound I were investigated using human liver microsomes (HLM) and recombinant enzymes. Compound I was stable in HLMs (>93% remaining after 240 minutes of incubation with HLM protein concentration at 0.6 mg/ml). CYP selective inhibitor experiments were not performed due to lack of appreciable Compound I turnover.

CYP2C19 = CYP2C19 (Homo sapiens, UniProt P33261); assay: Metabolism by recombinant human CYP2C19; type: in vitro ADME; settings: read-out: terminal half life (T1/2), rh CYP2C19
Method: as §1

CYP3A4/5 = assay: Metabolism by recombinant human CYP3A4/5; type: in vitro ADME; settings: read-out: terminal half life (T1/2), rh CYP3A4/5
Method: as §1

logD7.4 = type: physicochemical; settings: pH 7.4
acetyl-histone H3 = assay: PK/PD study, acetyl-histone H3 in tumor by Western blot; type: in vivo, C57BL/6 mice
Method: In a separate PK/PD study, MC38 tumor-bearing female C57BL/6 mice (12/group) were assigned to treatment groups with similar mean tumor volumes of approximately 430 mm^3 and treated with vehicle (5% N,N-dimethylacetamide [DMA]+30% polyethylene glycol [PEG] 400+65% of 30% 2-hydroxypropyl-beta-cyclodextrin [HP-β-CD] in water) or Compound I at 30, 100, and 300 mg/kg once daily (QD) for 2 days. Plasma samples were collected at 1, 2, 8 and 24 hours after last dose and analyzed for Compound I concentrations. Peripheral blood mononuclear cells (PBMC) and tumor samples were harvested at 2, 8, and 24 hours after last dose. The PBMC samples were processed for determination of mean florescent level of acetyl-histone H2B by flow cytometry. Tumor samples were processed for determination of protein levels of acetyl-histone H3 by Western blot.

[4] = system: cytokines and antigen presentation genes; assay: Nanostring PanCancer IO 360 cytokine and HLA gene profiling of STK11-/- MC38; parameters: species or system mouse; settings: 30 mg/kg for 7 days in vivo; 0.2 uM for 4 days in vitro
Method: The cytokine expression of tumors from mice treated with Compound I was determined by Nanostring PanCancer IO 360 analysis.
Briefly, STK11−/− MC38 tumors from mice treated for 7 days with 30 mg/kg of Compound I or anti-PD1 antibody alone or in combination were collected 8 hours post last dose. The gene expression profiles of CXCL9, CXCL10, and CXCL11 of the tumors were determined by Nanostring PanCancer IO 360 (FIG. 9A). Additionally, the gene expression profiles of Treg-recruiting chemokines CCL1 and CCL22 of the tumors were determined by Nanostring PanCancer IO 360 (FIG. 9B).
STK11-deficient MC38 cells were also profiled for HLA gene expression by Nanostring IO360 panel in vitro after 4 days of treatment with Compound I at 0.2 uM compared to DMSO solvent control (FIG. 9C).

Chain of CYP2C19 (P33261 whole entry): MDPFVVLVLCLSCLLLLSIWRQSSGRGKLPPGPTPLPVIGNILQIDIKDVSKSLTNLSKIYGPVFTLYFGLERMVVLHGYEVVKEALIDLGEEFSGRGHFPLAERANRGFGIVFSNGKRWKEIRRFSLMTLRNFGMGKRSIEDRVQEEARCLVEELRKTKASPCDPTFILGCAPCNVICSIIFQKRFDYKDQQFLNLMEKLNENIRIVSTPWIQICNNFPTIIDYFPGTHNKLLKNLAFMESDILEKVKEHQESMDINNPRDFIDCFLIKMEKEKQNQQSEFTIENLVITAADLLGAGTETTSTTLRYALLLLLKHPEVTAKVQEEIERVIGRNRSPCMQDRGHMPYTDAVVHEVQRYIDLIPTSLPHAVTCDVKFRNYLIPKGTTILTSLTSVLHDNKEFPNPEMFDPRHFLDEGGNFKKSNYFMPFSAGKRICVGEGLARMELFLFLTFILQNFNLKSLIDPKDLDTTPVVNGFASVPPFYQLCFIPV
Chain of CYP1A2 (P05177 whole entry): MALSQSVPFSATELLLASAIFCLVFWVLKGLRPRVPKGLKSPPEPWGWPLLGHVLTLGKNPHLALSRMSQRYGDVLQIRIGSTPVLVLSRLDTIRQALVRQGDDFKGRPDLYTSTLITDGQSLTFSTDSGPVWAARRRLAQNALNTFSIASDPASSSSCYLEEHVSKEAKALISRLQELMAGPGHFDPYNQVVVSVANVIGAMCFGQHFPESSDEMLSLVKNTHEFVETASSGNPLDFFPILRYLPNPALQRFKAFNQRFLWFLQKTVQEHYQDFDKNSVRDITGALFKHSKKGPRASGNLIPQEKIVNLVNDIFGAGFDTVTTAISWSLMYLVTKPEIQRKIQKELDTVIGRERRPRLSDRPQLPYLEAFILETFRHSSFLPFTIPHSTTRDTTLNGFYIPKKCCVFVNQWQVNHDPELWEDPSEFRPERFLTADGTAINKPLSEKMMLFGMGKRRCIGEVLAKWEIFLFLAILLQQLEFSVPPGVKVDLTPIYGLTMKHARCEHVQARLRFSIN
T1 sequence (Q9UBN7 whole entry): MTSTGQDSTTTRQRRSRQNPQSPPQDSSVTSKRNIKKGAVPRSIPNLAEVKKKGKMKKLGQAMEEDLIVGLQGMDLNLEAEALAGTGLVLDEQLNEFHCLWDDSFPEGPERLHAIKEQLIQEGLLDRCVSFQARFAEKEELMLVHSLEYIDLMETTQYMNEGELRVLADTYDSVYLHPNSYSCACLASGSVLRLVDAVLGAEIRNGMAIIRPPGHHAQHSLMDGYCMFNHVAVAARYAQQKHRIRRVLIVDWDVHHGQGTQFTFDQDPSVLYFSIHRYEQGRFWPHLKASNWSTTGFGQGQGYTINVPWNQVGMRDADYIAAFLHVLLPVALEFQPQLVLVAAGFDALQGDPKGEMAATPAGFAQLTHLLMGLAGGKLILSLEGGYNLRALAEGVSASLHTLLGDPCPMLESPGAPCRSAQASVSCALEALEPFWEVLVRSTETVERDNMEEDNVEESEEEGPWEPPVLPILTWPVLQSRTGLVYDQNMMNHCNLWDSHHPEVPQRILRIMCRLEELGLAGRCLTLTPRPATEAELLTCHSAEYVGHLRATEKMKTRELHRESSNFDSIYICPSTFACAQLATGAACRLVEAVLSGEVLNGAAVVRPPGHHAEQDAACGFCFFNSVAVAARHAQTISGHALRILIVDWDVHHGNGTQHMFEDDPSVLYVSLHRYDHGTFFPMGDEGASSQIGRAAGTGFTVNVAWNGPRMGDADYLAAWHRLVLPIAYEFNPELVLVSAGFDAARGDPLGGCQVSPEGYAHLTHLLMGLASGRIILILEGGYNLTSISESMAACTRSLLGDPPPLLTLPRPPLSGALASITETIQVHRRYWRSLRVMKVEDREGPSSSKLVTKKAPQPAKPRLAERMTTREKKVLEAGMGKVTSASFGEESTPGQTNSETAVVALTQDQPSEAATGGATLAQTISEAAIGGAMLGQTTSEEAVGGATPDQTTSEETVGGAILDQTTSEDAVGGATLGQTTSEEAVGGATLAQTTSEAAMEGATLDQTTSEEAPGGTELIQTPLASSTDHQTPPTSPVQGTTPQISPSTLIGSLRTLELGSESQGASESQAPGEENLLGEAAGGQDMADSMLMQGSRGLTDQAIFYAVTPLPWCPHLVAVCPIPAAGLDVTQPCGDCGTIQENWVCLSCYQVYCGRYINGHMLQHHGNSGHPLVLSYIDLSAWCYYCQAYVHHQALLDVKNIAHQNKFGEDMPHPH

## C[S@@](=N)(=O)c1ccc(C(=O)Nc2cc(-c3ccc(F)cc3)ccc2N)cc1 [Compound I, (R)—N-(4-amino-4′-fluoro-[1,1′-biphenyl]-3-yl)-4-(S-methylsulfonimidoyl)benzamide]
HDAC6
  IC50: > 30 µM
STK11-null 3LL tumor
  Median TTE: 18 days
[1]
  Non-tolerated exposures: over 150 mg/kg
[2]; po, male cynomolgus monkeys, suspension at 3 mg/kg, fed, read-out: PO bioavailability (% F)
  bioavailability: 83%
[2]; male
  half-life: 6.8 h
[2]; male, intravenous, read-out: CL, p
  clearance: 9.4 mL/min/kg
[3]
  solubility: ≥ 100 µM
CYP1A2
  half-life: > 1 h
CYP2C19
  half-life: > 1 h
CYP3A4/5
  half-life: > 1 h
logD7.4
  logD7.4: 1.9
acetyl-histone H3; 300 mg/kg QD, 2 days, 24 hours after last dose, vs vehicle control
  maximal induction of histone acetylation in tumor: 3.7 fold
acetyl-histone H3; 30, 100, 300 mg/kg QD, starting 2 hours after last dose
  tumor acetyl-histone protein levels: dose-dependent increase
[4]
  immune evasion; expression of cytokines and antigen presentation genes: reverses immune evasion on tumor cells
